Experimental data reported in US20240044763A1, “GASTROINTESTINAL TRACT SIMULATION SYSTEM AND METHOD” (ProDigest, priority 2020, published 2024).
Structures can show the parent of a compound that is named as a salt. Where two headings read alike, the source gives them in different places.

Legend:
[1] = cited from earlier work
[2] = gastrointestinal tract simulation system, fasted state, Sporanox solution with or without water; assay type: in vitro ADME
Description: FIGS. 5A-7B are a series of graphs showing the results of an experiment, simulating fasted state conditions, in which tests are performed in an experimental setup as shown in FIG. 1. […] At the start of the first experimental run, 20 mL of Sporanox® solution (corresponding to a dose of 200 mg itraconazole) was added to the stomach (without water) (Vdose 1=20 mL) whereas at the start of the second run, 20 mL of Sporanox solution was added together with 240 mL of water to the first compartment (with water) (Vdose 2=260 mL). […] Itraconazole concentrations were determined through UHPLC chromatography coupled to UV detection. All experiments were performed in biological triplicate.

[3] = cited from earlier work; remark: listed apart in the source

Compound | AUC of solute concentration in the duodenum (fed state with carbohydrate solution compared to fasted state) | AUC of solute concentration in the duodenum (fed state with elevated stomach pH) | decrease in indinavir bioavailability ([1]; high carbohydrate meal compared to fasted) | decrease in indinavir bioavailability ([1]; high fat meal compared to fasted) | decrease in indinavir bioavailability ([1]; high protein meal compared to fasted) | area under the curve of the permeated compound ([2]; with versus without water, outer vessel (sink)) | behaviour of itraconazole in the duodenum ([2]; without water, duodenum pH 6.5) | aqueous solubility [3]
CC(C)(C)NC(=O)[C@@H]1CN(Cc2cccnc2)CCN1C[C@@H](O)C[C@@H](Cc1ccccc1)C(=O)N[C@H]1c2ccccc2C[C@H]1O [indinavir sulfate] | increased | decreased substantially | 45% | 34% | 68% | – | – | –
CCC(C)n1ncn(-c2ccc(N3CCN(c4ccc(OCC5COC(Cn6cncn6)(c6ccc(Cl)cc6Cl)O5)cc4)CC3)cc2)c1=O (centres unmarked) [Itraconazole, itraconazole] | – | – | – | – | – | absence of a substantial difference | precipitation of a fraction of the administered dose | very low aqueous solubility
